The series in a line: gradient 5% acetonitrile 3 min, to 50% in 2 min, to 85% in 15 min, held 3 min, 100 µL/min. The following applies: column: Zorbax Extend-C18 2.1 x 50 mm; eluents: water / acetonitrile, 0.1% formic acid. The procedure, abridged:
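A Zorbax Extend-C18 column (2.1 × 50 mm, 1.8 μm) run at 100 μL/min with water and acetonitrile, both containing 0.1% formic acid, separated mixtures of ~100 pure standards. The HPLC was coupled to a quadrupole time-of-flight mass spectrometer operated in positive and negative ionization mode, with dead and dwell volumes of 40 μL and 900 μL. Each retention time was taken from a computationally picked adduct peak that was then manually inspected.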
Compound `CCC(C)c1ccc(-c2csc(NC(C)=O)n2)cc1` (centres undefined) came in with an RP-LC retention time of 1030 s.

In the case of `CC(C)CN1CCN(C(=O)COc2ccc(NC(=O)C3CC3)cn2)CC1`, the RP-LC retention time amounted to 570 s.

`COc1ccc(C2=NN(C(=O)c3ccccc3)C(c3cccc([N+](=O)[O-])c3)C2)cc1` (centres undefined) yielded an RP-LC retention time of 1000 s.

For the compound `O=c1c2nnc3c(-c4ccccc4)cnn3c2ccn1CCc1c[nH]c2ccccc12`, the RP-LC retention time was 917 s.

`COc1cccc(Cn2c(=O)c3sccc3n(Cc3nc(-c4cccc(OC)c4)no3)c2=O)c1` gave an RP-LC retention time of 1080 s.

In turn, `O=C(COc1ccccc1)Nc1cnc(N2CCOCC2)nc1` gave an RP-LC retention time of 746 s.

Turning to `CCOC(=O)c1[nH]c(C)c(CCC(=O)N2CCC(C(=O)NC3CC3)CC2)c1C`, the RP-LC retention time was determined as 650 s.

Compound `CCn1nccc1C(=O)NCCn1c(=O)n(Cc2ccccc2)c2cccnc21` had an RP-LC retention time of 740 s.

With `Cc1nc(C2(C)CCN(S(=O)(=O)c3cc(F)ccc3C)CC2)no1`, the RP-LC retention time was determined as 948 s.

Compound `CC(C)NCC(O)COc1ccccc1-n1cccc1` (centres undefined) displayed an RP-LC retention time of 701 s.

In turn, `COCCCn1c(=O)c2ccccc2n(Cc2nc(-c3ccc(C)c(C)c3)no2)c1=O` displayed an RP-LC retention time of 1120 s.

Compound `CCN(CC)CCNC(=O)Cn1c2ccccc2c2nc(=O)cc(C)n21` showed an RP-LC retention time of 592 s.

Compound `CC(C)n1c(=O)n(CC(=O)NC2CCCc3ccccc32)c2cc(S(=O)(=O)N3CCCC3)ccc21` (centres undefined) returned an RP-LC retention time of 927 s.

`COc1ccc(C(=O)Oc2cc(C)nn2-c2nc3ccccc3[nH]2)cc1` registered an RP-LC retention time of 643 s.

In the case of `Cc1cc(C)cc(C(=O)N2CCCC(C(=O)NC3CCCCCCC3)C2)c1` (centres undefined), the RP-LC retention time amounted to 1040 s.

`CCOC(=O)c1ccc(NC(=O)c2c(C)oc3nc(C)nc(N4CCCC4)c23)cc1` came in with an RP-LC retention time of 848 s.

`Cc1ccc(-c2nnc(-c3ccc(Br)cc3)o2)cc1S(=O)(=O)N1CCCC1` displayed an RP-LC retention time of 1190 s.

Take `CCN1C(=O)c2cccnc2Sc2cc(C(=O)NCc3ccc(F)cc3)ccc21`: the RP-LC retention time was determined as 805 s.

The compound `Cc1ccc(-c2noc(-c3ccccc3S(=O)(=O)N3CCN(c4ncccn4)CC3)n2)cc1` came in with an RP-LC retention time of 1160 s.

Compound `CCCNC(=O)C1CCN(Cc2cc3ccccc3n2Cc2ccccc2Cl)CC1` had an RP-LC retention time of 736 s.

`O=C(NCc1noc(COc2ccccc2)n1)c1ccc(-c2noc(C3CC3)n2)cc1` yielded an RP-LC retention time of 940 s.

Turning to `CCN1CCC2(CC1)OC(=O)C(C)=C2C(=O)Nc1cc(Cl)c(OC)cc1OC`, the RP-LC retention time came to 643 s.

Consider `Cc1cc(C(=O)N2CCCCC2)c2c(=O)n(Cc3nc(-c4ccccc4)oc3C)c(=O)n(C)c2n1`, for which the RP-LC retention time stood at 1020 s.

Compound `CCN1C(=O)c2ccccc2Oc2ccc(C(=O)NCCc3cccs3)cc21` displayed an RP-LC retention time of 944 s.

Regarding `Cc1ccc(S(=O)(=O)N2CCCC2c2nc(-c3cccc(Cl)c3)no2)cc1C` (centres undefined), the RP-LC retention time stood at 1270 s.

Regarding `O=C(Cn1c(=O)c(=O)n(Cc2ccccc2)c2ncccc21)NCCc1ccco1`, the RP-LC retention time amounted to 797 s.

Compound `COc1ccc(CN2C=C(C(=O)OCc3noc(C)n3)C(C)=NS2(=O)=O)cc1` had an RP-LC retention time of 873 s.

`O=C(Nc1nc(-c2ccc([N+](=O)[O-])cc2)cs1)c1ccc2ncsc2c1` returned an RP-LC retention time of 892 s.

Consider `Cc1nnc2c(=O)n(CC(=O)NCc3ccc(F)cc3Cl)c3cccnc3n12`, for which the RP-LC retention time was 710 s.

The compound `COc1ccc(CN(C)Cc2cc(=O)n3cc(Cl)ccc3n2)cc1` yielded an RP-LC retention time of 624 s.

For the compound `Cc1cc(C)cc(NC(=O)Cn2ncc3c(N4CCN(c5ccccn5)CC4)ncnc32)c1`, the RP-LC retention time was 606 s.

Regarding `COc1cc2c(cc1OC)CC(=O)N(CCCN(C)C[C@H]1Cc3cc(OC)c(OC)cc31)CC2`, the RP-LC retention time was determined as 677 s.

`O=C(CC1CCNCC1)N1CCC(CCOc2cccnc2)CC1` displayed an RP-LC retention time of 544 s.

Compound `O=C1CSC(c2cccs2)N1c1nncs1` (centres undefined) yielded an RP-LC retention time of 804 s.

In turn, `Cc1ccc(Nc2c(-c3ccc(N(C)C)cc3)nc3cccc(C)n23)cc1` returned an RP-LC retention time of 816 s.

In the case of `COc1ccc(N2CCN(c3nc(C)cc(C)n3)CC2)cc1`, the RP-LC retention time is 745 s.

`Cc1ccc(S(=O)(=O)c2cnc(N3CCN(c4cc(Cl)ccc4C)CC3)nc2N)cc1` gave an RP-LC retention time of 1320 s.

The compound `Fc1ccc(N2CCN(c3nnc(SCc4cccnc4)s3)CC2)cc1` displayed an RP-LC retention time of 633 s.

On to `Cc1ccc(Cl)cc1NC(=O)CSc1ccc(N2CCOCC2)nn1`, for which the RP-LC retention time worked out at 766 s.

As for `Cc1cc(Cl)ccc1OCc1nc(-c2cccc(-c3ccnn3C)c2)no1`, the RP-LC retention time is 1200 s.

The compound `CS(=O)(=O)N1CCCc2cc(C(=O)NCCC3=CCCCC3)ccc21` showed an RP-LC retention time of 935 s.

Turning to `CC1(C)CCC[C@]2(C)[C@H]3CC(=O)O[C@]3(C)CC[C@@H]12`, the RP-LC retention time worked out at 1220 s.

For `O=C(Nc1cccc(C(F)(F)F)c1)N1CCN(c2ccc(Nc3cccnc3)nn2)CC1`, the RP-LC retention time was 566 s.

Regarding `Cn1c(C2CCN(C(=O)Nc3cc(F)ccc3F)CC2)cc(=O)n2nccc12`, the RP-LC retention time worked out at 695 s.

The compound `O=C(NCCc1ccccc1)NC1CCCN(c2cc(-c3ccncc3)[nH]n2)C1` (centres undefined) gave an RP-LC retention time of 620 s.

Take `CC(C)n1c(CCNC(=O)Cc2ccsc2)nc2cccnc21`: the RP-LC retention time was found to be 624 s.

As for `Cc1cc(C)n(CCNC(=O)c2cnccn2)n1`, the RP-LC retention time turned out to be 566 s.

As to `COc1cccc(N2CCN(C(=O)C3CCN(S(=O)(=O)c4cn(C)c(C)n4)CC3)CC2)c1`, the RP-LC retention time was found to be 702 s.

For the compound `CSc1ccc(-c2nc3cnccn3c2Nc2cc(C)cc(C)c2)cc1`, the RP-LC retention time stood at 1070 s.

In turn, `Cc1cc2c(N3CCCC(C(=O)NCc4ccc(F)cc4F)C3)nccc2s1` (centres undefined) displayed an RP-LC retention time of 700 s.

`Cc1nnc(N2CCCC(C(=O)NCCc3ccco3)C2)c2nn(-c3ccc(Cl)cc3)c(C)c12` (centres undefined) displayed an RP-LC retention time of 743 s.

`COc1cccc(-c2noc(CN3C(=O)COc4cc(Cl)ccc43)n2)c1` gave an RP-LC retention time of 1090 s.

`Cc1ccc(-n2nc(CO)c(C(=O)NCc3ccc4c(c3)OCO4)n2)cc1` came in with an RP-LC retention time of 940 s.

`Cc1cc(NC(=O)NCCn2nnc3cc(C(=O)N(C)C)ccc32)ccc1Br`: the RP-LC retention time stood at 707 s.

Regarding `Cc1ccc(CNC(=O)N2CCN(c3cnn4c(C)nnc4c3)CC2)cc1`, the RP-LC retention time was found to be 568 s.

Compound `CCC(=O)Nc1ccc(C2(C(=O)NCCN3CCCC3)CCCCC2)cc1` came in with an RP-LC retention time of 606 s.

`CCc1sc(NC(=O)Cn2nc3c(cc2=O)CCCC3)nc1C(=O)OC` came in with an RP-LC retention time of 764 s.

With `CCNc1cc(C)nc(N2CCN(C(=O)c3ccc(-c4ccccc4)cc3)CC2)n1`, the RP-LC retention time came out at 746 s.

Consider `COc1ccc(OCC(=O)Nc2ccc3c(c2)N(C(C)=O)CCC3)cc1`, for which the RP-LC retention time was 782 s.

For the compound `CC(C)N1C(=O)c2cccnc2Sc2cc(NC(=O)c3ccccc3F)ccc21`, the RP-LC retention time came to 896 s.

Turning to `Cc1ccccc1Cn1c(N2CCC(C(=O)N3CCN(c4ccccn4)CC3)CC2)nc2ccccc21`, the RP-LC retention time is 587 s.

On to `CC(=O)c1cc2c(cc1NC(=O)c1ccc(COc3ccccc3)o1)OCO2`, for which the RP-LC retention time worked out at 1080 s.

`COc1ccccc1CN1CCc2nc(N3CCN(c4ncccn4)CC3)ncc2C1` yielded an RP-LC retention time of 716 s.

Take `CCCNS(=O)(=O)c1ccc(-c2cc(C(F)(F)F)on2)o1`: the RP-LC retention time turned out to be 1010 s.

Compound `CC(Cc1ccco1)NC(=O)CCCn1c(=O)c2cccn2c2ccc(Br)cc21` (centres undefined) registered an RP-LC retention time of 924 s.

With `O=C(Nc1ccc(Cl)cc1F)N1CCc2nc[nH]c2C1`, the RP-LC retention time is 584 s.

`CCN1C(=O)Cc2cc(C(=O)N3CCN(c4ccccc4F)CC3)ccc21` registered an RP-LC retention time of 848 s.

Turning to `COc1ccc(CCNC(=O)COc2cc(=O)n3ccccc3n2)cc1`, the RP-LC retention time turned out to be 631 s.

`Cc1ccn2cc(C(=O)N3CCN(c4ccccc4Cl)CC3)nc2c1` came in with an RP-LC retention time of 722 s.

With `COc1cccc(C(=O)N2CCC3(CC2)NC(=O)c2ccccc2N3C)c1`, the RP-LC retention time is 718 s.

On to `CCOc1ccc2ncc(C(=O)c3ccc(OC)cc3)c(N3CCN(C)CC3)c2c1`, for which the RP-LC retention time was 599 s.

As for `CC(=O)N1CCc2cc(N3CC(C(=O)Nc4ccc(F)c(C)c4)CC3=O)ccc21` (centres undefined), the RP-LC retention time is 740 s.

Consider `Cc1ccc2nc(C)c(NC(=O)c3ccccc3C(F)(F)F)c(=O)n2c1`, for which the RP-LC retention time worked out at 620 s.

`Cc1cccc(-c2noc(-c3cccnc3N3CCN(c4ccccc4)CC3)n2)c1` displayed an RP-LC retention time of 1400 s.

For the compound `O=C(Cc1ccc(Cl)cc1)NCc1nc(-c2ccc3oc(-c4ccccc4)nc3c2)no1`, the RP-LC retention time is 1110 s.

Compound `Cc1ccc(-c2c(C)noc2C)cc1S(=O)(=O)NCc1ccccc1` registered an RP-LC retention time of 924 s.

For the compound `CCOc1ccc(CC(=O)N2CCN(c3c(C)n(C)c(=O)n(C)c3=O)CC2)cc1OCC`, the RP-LC retention time was 742 s.

`Cc1nn(C)c2nc(OC(C)C(=O)NCc3ccc(Cl)cc3)cc(C(F)(F)F)c12` (centres undefined) gave an RP-LC retention time of 1020 s.

`COCCN1C(=O)c2cccn2CC1CNC(=O)CC(C)C` (centres undefined) showed an RP-LC retention time of 639 s.
